Experimental data published in patent US20240115645A1, “DRUG FOR TREATING UROLITHIASIS-RELATED DISEASE, AND PREPARATION METHOD THEREFOR” (HONG ZHANG, priority 2021, published 2024).

Assays:
SD rats [1] = assay: Serum CRE and BUN levels of urolithiasis model rats; assay type: in vivo, rat; settings: all groups, 4 weeks
From the text: (§1) II. Experimental example of pharmacological activity • 1. Preparation of test samples • (1) High-dose group test sample: the water-extracted, 0-25% ethanol gradient eluent by polyamide column prepared in Preparation Example 5 was concentrated and dried to obtain the active ingredient extract. A solution with a density of about 1.2 g/ml was formulated, and the concentration of the effective substance measured by the pharmacopoeia standard and the absorbance method (using rutin as a standard substance to make a standard curve) is about 130.4 mg/ml. • (2) Medium-dose group test sample: the high-dose group sample was diluted once to obtain the middle-dose group test sample. • (3) Low-dose group test sample: the middle-dose group sample was dilute once to obtain the low-dose group test sample. • (4) Positive control group test sample: potassium sodium hydrogen citrate aqueous solution with a concentration of 100 mg/ml, 3 ml per day, equivalent to 300 mg/d. • 2. Animal experiments • 2.1. Experimental animals and feeding conditions
(§2) 36 male SD rats of SPF grade, 6-8 weeks old, 200-250 g. • 2.2.3 Model preparation […]

SD rats [2] = assay: Kidney lesions under HE microscope in rat urolithiasis model (1% ethylene glycol + 2% ammonium chloride); assay type: in vivo; parameters: key to Renal tubule dilation lesions / Renal interstitial inflammatory cell infiltration / Calcium oxalate crystal aggregation: No lesion was represented by −; mild lesion was +; lesion was ++; significant lesion was +++; settings: potassium sodium hydrogen citrate group
From the text: as §1
36 male SD rats of SPF grade, 6-8 weeks old, 200-250 g. • 2.2.3 Model preparation
SD rats were fed adaptively for 7 days, and all groups (except the normal group) were administered 1% ethylene glycol (by drinking water)+2% ammonium chloride (by intragastric administration) 2 ml/rat to establish a model for 28 consecutive days. • 2.2.4 Experimental grouping and processing
36 male SD rats were randomly divided into 6 groups according to body weight, 6 rats in each group. These are normal group, model group, potassium sodium hydrogen citrate group, traditional Chinese medicine extract (low, medium, high) dose group. During the modeling process, 3 ml of the drug was administered by intragastric administration every day, and the drug included the positive control drug and the purified part through the polyamide column. The animals were euthanized after 4 weeks. • 2.2.5 Kidney
The kidney tissues were peeled off in vivo, the kidney on one side was stored in a cryopreservation tube at −80° C. for tissue homogenate to detect Ca2+ concentration, and the kit operation steps were the same as above; the […] kidney on the other side was fixed in formalin solution for tissue sectioning to perform HE staining. • (1) The steps for making paraffin sections were as follows:
(1) fixation, (2) trimming, (3) dehydration, (4) transparency, (5) wax immersion, (6) embedding, (7) slicing, (8) baking slices, (9) preservation: packed in boxes and stored at room temperature. • (2) HE staining steps were as follows:
(1) dewaxing and rehydration, (2) dyeing, (3) dehydration, transparency, mounting,
(4) staining results: the nucleus was blue, the cytoplasm was pink, and the red blood cells were bright red. • 3. Test results • 3.1. Positive test results for calcium oxalate crystals in rat urine
The results consisted of three parts: calcium oxalate crystal aggregation, renal tubule dilation lesions, and chronic renal interstitial inflammatory cell infiltration.

SD rats [3] = assay: Ca2+ concentration in serum, urine and kidney tissue of urolithiasis model rats; assay type: in vivo, rat; settings: potassium sodium hydrogen citrate drug group, 300 mg/d
From the text: as §1, §2

[4] = 100 mg/ml, 3 ml per day (300 mg/d) intragastric, 4 weeks

O.O=C([O-])CC(O)(CC(=O)[O-])C(=O)O.O=C([O-])CC(O)(CC(=O)[O-])C(=O)O.O=C([O-])CC(O)(CC(=O)[O-])C(=O)O.O=C([O-])CC(O)(CC(=O)[O-])C(=O)[O-].O=C([O-])CC(O)(CC(=O)[O-])C(=O)[O-].[K+].[K+].[K+].[K+].[K+].[K+].[Na+].[Na+].[Na+].[Na+].[Na+].[Na+] [potassium sodium hydrogen citrate]
BUN levels in serum, order of groups from high to low (SD rats [1]): model group>low dose treatment group>potassium sodium hydrogen citrate drug group>medium dose treatment group>high dose treatment group>normal group
CRE levels in serum, order of groups from high to low (SD rats [1]): model group>medium dose treatment group>potassium sodium hydrogen citrate drug group>low dose treatment group>high dose treatment group>normal group
Calcium oxalate crystal aggregation (SD rats [2]; [4]): ++
Renal interstitial inflammatory cell infiltration (SD rats [2]; [4]): +
Renal tubule dilation lesions (SD rats [2]; [4]): ++
brownish yellow calcium oxalate crystals under the HE microscope, compared with the model group (SD rats [2]; 300 mg/d): did not decrease significantly
inflammatory cell infiltration in the renal interstitium under the HE microscope (SD rats [2]; 300 mg/d): occasionally seen
renal tubule dilatation under the HE microscope, compared with the model group (SD rats [2]; 300 mg/d): improved
Ca2+ concentration in kidney tissue, difference compared with the model group and the normal group (SD rats [3]): very significant difference (P<0.01)
Ca2+ concentration in kidney tissue, rank among groups (SD rats [3]): highest concentration
